From patent US8722649B2, “Alpha-chloro and alpha-bromo phosphonate analogs of lysophosphatidic acid and methods of making and using thereof” (University of Utah Research Foundation, priority 2007, dated 2014)
Read-outs that look alike come from different tables or passages of the source.

Experiments:
human LPA1 = target: T1, human LPA1 (Homo sapiens, UniProt Q92633); assay: Ca2+ mobilization assay, LPA1; format: cell-based; details: for LPA1 (Emax): Emax = (maximal efficacy of compound/maximal efficacy of LPA 18:1) × 100; for EC50: RH7777 cells stably expressing LPA1, agonist mode; for LPA1 ligand type: agonist/antagonist in words
T1 construct: expressed in transfected cells
Experimental: (§1) Receptor activation using Ca^2+ mobilization assay for diastereomers of 1 (also represented as 19b). The rat hepatoma (RH7777) cell lines individually expressing either LPA1, LPA2, LPA3 or LPA5 receptors and Chinese hamster ovary (CHO) cell line were analyzed to examine agonism and antagonism. […] CHO cells stably expressing either vector or LPA4 were kindly gifted from Dr. Shimizu (University of Tokyo, Tokyo, Japan).
(§2) Stable transformants of LPA1/2/3 receptors. RH7777 cells stably expressing each receptor were plated onto poly-L-lysine (PLL) (0.1 mg/mL)-coated black-wall clear-bottom 96-well plates (Corning Incorporated Life Sciences, Acton, Mass.) at a density of 5×10^4 cells/well and cultured overnight. The following day, the culture medium was replaced with modified Krebs buffer (120 mM NaCl, 5 mM KCl, 0.62 mM MgSO4, 1.8 mM CaCl2, 10 mM HEPES, 6 mM glucose, pH 7.4), and the cells were serum starved for 6 h. Subsequently, cells were loaded with Fura-2 AM (Invitrogen, Carlsbad, Calif.) for 35 min in modified Krebs buffer containing 2% (v/v) pluronic acid.
(§3) After incubating the cells with Fura-2 AM, the cells were rinsed with Krebs buffer and changes in the intracellular Ca^2+ concentration were monitored by determining the ratio of emitted light intensities at 520 nm in response to excitation at 340 and 380 nm using FLEXstation II (Molecular Devices, Sunnyvale, Calif.). Each well was monitored for 80-120 sec. For testing agonist activity of the compounds, the test compounds were added automatically after 15 sec of baseline measurement. To determine antagonist properties, varying concentrations of the compounds were mixed with a constant concentration of LPA and responses were monitored. Each test was performed in quadruplicate. EC50, IC50, and Ki values were calculated by fitting a sigmoid function to data points with the nonlinear curve-fitting feature of KaleidaGraph (Synergy Software, Essex Junction, Vt.).
Receptor activation using Ca^2+ mobilization assay. The assay for mobilization of intracellular Ca^2+ was performed as described. Briefly, rat hepatoma RH7777 cells stably expressing human LPA1, LPA2, or LPA3, and CHO cells stably expressing LPA4, were loaded with Fura-2 AM (Molecular Probes). Using a FLEXStation (Molecular Devices, Sunnyvale, Calif.), changes in intracellular Ca^2+ concentration were monitored. Ligand-induced changes in fluorescence were monitored for 80-120 seconds. Ca^2+ transients were quantified automatically by calculating the difference between maximum and baseline ratio values for each sample. To determine antagonist properties, different concentrations of each analogue were mixed with either palmitoyl (16:0) or oleoyl (18:1) LPA (200 nM for LPA1 and LPA3, 10 nM for LPA2, and 400 nM for LPA4) (Avanti Polar Lipids, Inc., […], Ala.) and responses were recorded. Each test was performed in quadruplicate. EC50, IC50, and Ki values were calculated as described. The ligand properties of the compounds were evaluated using Ca^2+ mobilization assay for assessing the activation/inhibition of LPA1, LPA2, and LPA3 expressed in RH7777 cells and LPA4 expressed in CHO cells. Table l illustrates calcium responses elicited through the activation of human LPA1, LPA2, LPA3 and LPA4 receptors. These cell lines have been used extensively for the characterization of LPA GPCR ligands because RH7777 cells are intrinsically unresponsive to LPA and CHO cells show minimal endogenous responses to LPA unless transfected with LPA4.

human LPA4 = target: T2, human LPA4 (Homo sapiens, UniProt Q99677); assay: Ca2+ mobilization assay, LPA4 in CHO cells; format: cell-based; details: for EC50: CHO cells stably expressing LPA4, agonist mode; for LPA4 (Emax): Emax = (maximal efficacy of compound/maximal efficacy of LPA 18:1) × 100; for LPA4 ligand type: agonist/antagonist in words; for inhibition at 30 µM: CHO, at 30 μM (400 nM LPA), read-out: LPA4 Inhibition
T2 construct: expressed in transfected cells
Experimental: as §1
Stable transformants of LPA4. CHO cells stably expressing either vector or LPA4 were plated on non-coated 96 well plates at a density of 4×10^4 cells/well and cultured overnight. The following day, cells were loaded with Fura-2 AM for 1 h in modified Krebs buffer containing 2% (v/v) pluronic acid and 2.5 mM probenecid.
as §3, with “To determine antagonist properties, varying concentrations of the compounds were mixed with a constant concentration of LPA and responses were monitored.” left out
(§4) Receptor activation using Ca^2+ mobilization assay. The assay for mobilization of intracellular Ca^2+ was performed as described. Briefly, rat hepatoma RH7777 cells stably expressing human LPA1, LPA2, or LPA3, and CHO cells stably expressing LPA4, were loaded with Fura-2 AM (Molecular Probes). Using a FLEXStation (Molecular Devices, Sunnyvale, Calif.), changes in intracellular Ca^2+ concentration were monitored. Ligand-induced changes in fluorescence were monitored for 80-120 seconds. Ca^2+ transients were quantified automatically by calculating the difference between maximum and baseline ratio values for each sample. […] Each test was performed in quadruplicate. EC50, IC50, and Ki values were calculated as described. The ligand properties of the compounds were evaluated using Ca^2+ mobilization assay for assessing the activation/inhibition of LPA1, LPA2, and LPA3 expressed in RH7777 cells and LPA4 expressed in CHO cells.

human LPA2 = target: T3, human LPA2 (Homo sapiens, UniProt Q9HBW0); assay: Ca2+ mobilization assay, LPA2; format: cell-based; details: for LPA2 (Emax): Emax = (maximal efficacy of compound/maximal efficacy of LPA 18:1) × 100; for EC50: RH7777 cells stably expressing LPA2, agonist mode; for LPA2 ligand type: agonist/antagonist in words
T3 construct: expressed in transfected cells
Experimental: as §1, §2
as §3, with “To determine antagonist properties, varying concentrations of the compounds were mixed with a constant concentration of LPA and responses were monitored.” left out
as §4

recombinant ATX-HA = target: T4, recombinant ATX-HA (Homo sapiens, UniProt Q13822); assay: Autotaxin assay (FS-3 hydrolysis); format: biochemical; details: for Inhibition (%) of autotaxin (ATX) phosphodiesterase activity / inhibition at 10 µM: FS-3 substrate
T4 construct: HA
Experimental: Autotaxin Assay. This assay utilizes FS-3 (Echelon Biosciences, Inc. Salt Lake City, Utah) as substrate and recombinant ATX-HA. For analysis, 50 μl of ATX-HA (0.25 μg) in assay buffer (Tris 50 mM, NaCl 140 mM, KCl 5mM, CaCl2 1 mM, MgCl2 1 mM, pH 8.0) was mixed with 25 μl of FS-3 (1 μM final concentration in assay buffer) and 25 μl of test compound dissolved in assay buffer containing 1:1.5 bovine serum albumin in 96-well plate. FS-3 fluorescence was monitored using FLEXstation fluorescence plate reader at a time zero and after 2 hours of incubation at 37° C. at excitation and emission wavelengths of 485 nm and 538 nm, respectively. Data was normalized to the corresponding vehicle control and the mean±standard deviation of triplicate wells were expressed as percent ATX inhibition. IC50, and Ki values were calculated as described.

[1] = antagonist mode vs 200 nM LPA, PA = partial antagonist, read-out: LPA1 IC50
[2] = 10.0 μM, preliminary single-dose screen
[3] = antagonist mode vs 10 nM LPA, PA = partial antagonist, read-out: LPA2 IC50
[4] = antagonist mode vs 10 nM LPA, read-out: LPA2 (Ki)
[5] = diastereomer study, RH7777 cells, read-out: LPA1 IC50 (Table 2)
[6] = diastereomer study, RH7777 cells, read-out: LPA1 Ki (Table 2)
[7] = diastereomer study, RH7777 cells, read-out: LPA2 IC50 (Table 2)
[8] = diastereomer study, RH7777 cells, read-out: LPA2 Ki (Table 2)
[9] = 10 μM, read-out: ATX Inhibition (Table 2)

T1 sequence (Q92633 whole entry): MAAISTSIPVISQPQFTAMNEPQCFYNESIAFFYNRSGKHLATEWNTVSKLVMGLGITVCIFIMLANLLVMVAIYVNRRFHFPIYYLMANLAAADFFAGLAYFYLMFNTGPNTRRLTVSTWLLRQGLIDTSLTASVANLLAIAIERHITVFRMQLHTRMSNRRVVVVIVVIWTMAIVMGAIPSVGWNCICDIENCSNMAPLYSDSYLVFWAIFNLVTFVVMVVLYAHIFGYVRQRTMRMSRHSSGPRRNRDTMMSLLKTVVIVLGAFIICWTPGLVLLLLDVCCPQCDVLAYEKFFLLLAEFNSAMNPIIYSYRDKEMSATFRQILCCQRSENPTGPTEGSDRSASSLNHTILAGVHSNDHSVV
T3 sequence (Q9HBW0 whole entry): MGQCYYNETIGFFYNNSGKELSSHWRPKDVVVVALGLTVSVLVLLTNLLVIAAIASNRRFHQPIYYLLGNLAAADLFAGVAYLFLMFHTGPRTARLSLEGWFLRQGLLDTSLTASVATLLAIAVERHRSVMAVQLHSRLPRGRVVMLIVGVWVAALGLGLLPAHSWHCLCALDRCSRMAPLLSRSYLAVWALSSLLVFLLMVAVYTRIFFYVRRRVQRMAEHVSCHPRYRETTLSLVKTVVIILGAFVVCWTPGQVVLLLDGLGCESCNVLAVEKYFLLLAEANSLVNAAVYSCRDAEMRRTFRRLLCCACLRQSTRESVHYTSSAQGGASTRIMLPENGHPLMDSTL
T2 sequence (Q99677 whole entry): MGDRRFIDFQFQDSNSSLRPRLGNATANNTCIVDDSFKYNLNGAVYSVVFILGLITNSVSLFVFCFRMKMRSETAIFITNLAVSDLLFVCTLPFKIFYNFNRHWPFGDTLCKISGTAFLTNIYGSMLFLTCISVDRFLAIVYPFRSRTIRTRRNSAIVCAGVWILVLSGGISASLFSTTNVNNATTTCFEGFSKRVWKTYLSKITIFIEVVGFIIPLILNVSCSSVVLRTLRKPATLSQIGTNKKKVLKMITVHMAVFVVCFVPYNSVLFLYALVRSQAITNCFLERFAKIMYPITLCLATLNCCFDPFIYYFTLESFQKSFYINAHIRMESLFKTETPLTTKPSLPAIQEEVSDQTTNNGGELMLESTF

| Compound | LPA1 (Emax) (human LPA1) | EC50 (human LPA1) [nM] | IC50 (human LPA1; [1]) [nM] | EC50 (human LPA4) [nM] | LPA4 (Emax) (human LPA4) | LPA4 ligand type (human LPA4) | LPA2 (Emax) (human LPA2) | EC50 (human LPA2) [nM] | Inhibition (%) of autotaxin (ATX) phosphodiesterase activity (recombinant ATX-HA; [2]) [%] | IC50 (human LPA1; [5]) [nM] | Ki (human LPA1; [6]) [nM] | inhibition at 30 µM (human LPA4) [%] | IC50 (human LPA2; [7]) [nM] | Ki (human LPA2; [8]) [nM] | inhibition at 10 µM (recombinant ATX-HA; [9]) [%] | other results |
| --- | --- | --- | --- | --- | --- | --- | --- | --- | --- | --- | --- | --- | --- | --- | --- | --- |
| CCCCCCCCC=CCCCCCCCC(=O)OCC(O)CC(O)P(=O)([O-])O.[Na+] (mixture of isomers) [Compound 22a, reference compound] | (39.1 ± 3.15) | > 9250 | > 30000 | > 1150 | (71.7 ± 2.0) | weak LPA4 agonists | (71.9 ± 6.0) | > 2160 | 74.7 | – | – | – | – | – | – | – |
| CCCCCCCCCCCCCCCC(=O)OCC(O)CC(O)P(=O)([O-])O.[Na+] (mixture of isomers) [Compound 22b, reference compound] | – | > 30000 | > 30000 | > 30000 | – | – | – | > 30000 | 54.1 | – | – | – | – | – | – | – |
| CCCCCCCCCCCCCCCC(=O)OC[C@@H](O)CCP(=O)([O-])O.[Na+] [Compound 20b, reference compound] | – | > 30000 | > 30000 | 5400 ± 526 | (29.3 ± 1.1) | weak LPA4 agonists | – | > 30000 | 60.6 ± 4.6 | – | – | – | – | – | – | IC50 (human LPA2; [3]): 2590 ± 875 nM; Ki (human LPA2; [4]): 1300 nM |
| CCCCCCCCCCCCCCCC(=O)OC[C@@H](O)C[C@@H](Br)P(=O)(O)O [Compound 1a] | – | – | – | – | – | Partial Antagonist | – | – | – | 648 | 273 | 35.1 | 288 | 250 | 98.1 ± 2.3 | LPA1 ligand type (human LPA1): Antagonist; LPA2 ligand type (human LPA2): Antagonist |
| CCCCCCCC/C=C\CCCCCCCC(=O)OCC(O)CCP(=O)(O)O (stereo not shown) [Compound 20a, reference compound] | (52.9 ± 11.3) | > 2520 | > 30000 | 3900 ± 104 | (110 ± 1.3) | weak LPA4 agonists | (94.7 ± 4.3) | > 281 | 99.8 | – | – | – | – | – | – | – |
| CCCCCCCCCCCCCCCC(=O)OC[C@@H](O)CC(Br)P(=O)(O)O (mixture of isomers) [Compound 1, [1-Bromo-3(S)-hydroxyl-4-(palmitoyloxy)butyl]-phosphonate] | – | > 30000 | 1500 ± 559 | > 30000 | – | – | – | > 30000 | – | 4520 | 805 | 13.9 | 468 | 245 | 102 ± 2.7 | Ki (human LPA1; antagonist mode vs 200 nM LPA, read-out: LPA1 (Ki)): 751 nM; IC50 (human LPA4): 266 nM; Ki (human LPA4; antagonist mode vs 400 nM LPA): 167 nM; IC50 (human LPA2; [3]): 1420 ± 83 nM; Ki (human LPA2; [4]): 304 nM; Inhibition (%) of autotaxin (ATX) phosphodiesterase activity (recombinant ATX-HA; 10.0 μM, preliminary single-dose screen, listed as 19b): 93.7 ± 2.0%; inhibition at 10 µM (recombinant ATX-HA; 10.0 μM, preliminary single-dose screen, read-out: Inhibition (%) of autotaxin (ATX) phosphodiesterase activity): > 90% |
| CCCCCCCCCCCCCCCC(=O)OC[C@@H](O)C[C@H](Br)P(=O)(O)O [Compound 1b] | – | – | – | – | – | Partial Antagonist | – | – | – | 2080 | 752 | 33.1 | 275 | 241 | 99.4 ± 2.7 | LPA1 ligand type (human LPA1): Antagonist; LPA2 ligand type (human LPA2): Antagonist; IC50 (recombinant ATX-HA; 0.3 to 10 μM, FS-3 hydrolysis, read-out: ATX apparent IC50): ~300 nM |
| CCCCCCCCCCCCCCCC(=O)OCC(O)COP(=O)(O)O (stereo not shown) [LPA (16:0), reference compound] | (88.7 ± 3.6) | 90.8 ± 20.9 | > 30000 | 843 ± 130 | (102.4 ± 4.1) | – | (100.3 ± 1.9) | 55.1 ± 4.3 | 38.1 ± 3.4 | – | – | – | – | – | – | – |
